In patent publication US7196110B2, “N-substituted tricyclic 3-aminopyrazoles as inhibitors for the treatment of cell proliferative disorders” (Janssen Phamaceutica N.V., priority 2002, dated 2007):
Where two headings read alike, the source gives them in different places.

Biological target: T1, PDGF-receptor beta enzyme comprising the tyrosine kinase domain (Homo sapiens, UniProt P09619)
T1 construct: from amino acid 545 to 1106 of GenBank Access NO: AAA36427
Assay: Inhibition of PDGF-receptor kinase activity (cell-free, PLC1 peptide, 33P Flashplate)
Type: biochemical
Conditions: for inhibition at 10 µM / Percent Inhibition @ 10 uM: compound at 10 uM; for inhibition at 10 µM: read-out: Percent Inhibition @ 10 uM
Procedure, shortened: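 The IC50 is the inhibitor level halving kinase activity relative to inhibitor-free wells, measured as 33P captured on a streptavidin-bound biotin-PLC1 peptide. The reaction ran 60 min at 30 °C in pH 8 Tris buffer with 1 mM DTT, 5 μM ATP and the 545–1106 kinase-domain enzyme.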

[1] = PDGF-R kinase activity, read-out: IC50

T1 sequence (P09619 545-1106): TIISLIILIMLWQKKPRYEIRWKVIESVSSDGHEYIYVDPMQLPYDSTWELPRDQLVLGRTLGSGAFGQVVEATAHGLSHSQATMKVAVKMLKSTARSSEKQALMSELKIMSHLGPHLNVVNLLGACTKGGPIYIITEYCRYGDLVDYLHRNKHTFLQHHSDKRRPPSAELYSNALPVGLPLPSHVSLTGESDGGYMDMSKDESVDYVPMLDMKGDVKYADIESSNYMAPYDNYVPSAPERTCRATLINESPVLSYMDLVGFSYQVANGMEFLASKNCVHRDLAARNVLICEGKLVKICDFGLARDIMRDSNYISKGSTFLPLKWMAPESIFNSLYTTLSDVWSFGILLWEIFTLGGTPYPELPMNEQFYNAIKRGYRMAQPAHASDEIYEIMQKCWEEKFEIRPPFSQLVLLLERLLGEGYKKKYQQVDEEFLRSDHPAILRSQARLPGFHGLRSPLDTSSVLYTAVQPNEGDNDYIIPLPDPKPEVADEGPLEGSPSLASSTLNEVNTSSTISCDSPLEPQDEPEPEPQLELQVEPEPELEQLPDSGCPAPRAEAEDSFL

SMILES	inhibition at 10 µM (PDGF-R kinase activity)	IC50 [1]	Percent Inhibition @ 10 uM (PDGF-R kinase activity)	IC50 (read-out: IC50 (μM) on PDGF-R kinase activity)
OCC(O)COc1cccc2c1Cc1c-2n[nH]c1NCc1c(Cl)cccc1Cl (stereo not shown) [Compound 479, 3-[3-(2,6-Dichloro-benzylamino)-2,4-dihydro-indeno[1,2-c]pyrazol-5-yloxy]-propane-1,2-diol]	94.5%	0.624 µM	–	–
CCC1c2cc(OC)c(OC)cc2-c2[nH]nc(Nc3cccc(Br)c3)c21 (single isomer, unassigned) [Compound 483, (3-Bromo-phenyl)-(4-ethyl-6,7-dimethoxy-1,4-dihydro-indeno[1,2-c]pyrazol-3-yl)-amine]	–	4.97 µM	78.5%	–
CCOc1cc2c(cc1OCC(O)CN1CCCC1)-c1n[nH]c(Nc3cccc(OC)c3)c1C2 (stereo not shown) [Compound 462, 1-[6-Ethoxy-3-(3-methoxy-phenylamino)-2,4-dihydro-indeno[1,2-c]pyrazol-7-yloxy]-3-pyrrolidin-1-yl-propan-2-ol]	99%	0.00215 µM	–	–
COc1cc2c(cc1OC)-c1n[nH]c(NCc3cccc(Cl)c3)c1C2 [Compound 424, (3-Chloro-benzyl)-(6,7-dimethoxy-2,4-dihydro-indeno[1,2-c]pyrazol-3-yl)-amine]	100%	0.0791 µM	–	–
Clc1cccc(Nc2[nH]nc3c2Cc2sccc2-3)c1 [Compound 403, (3-Chloro-phenyl)-(5,7-dihydro-1-thia-4,5-diaza-cyclopenta[a]pentalen-6-yl)-amine]	96%	0.0859 µM	–	–
COc1cccc(Nc2[nH]nc3c2Cc2cc(OCCCN4CCOCC4)c(OC)cc2-3)c1 [Compound 131, [7-Methoxy-6-(3-morpholin-4-yl-propoxy)-2,4-dihydro-indeno[1,2-c]pyrazol-3-yl]-(3-methoxy-phenyl)-amine]	97%	0.013 µM	–	–
COc1cc2c(cc1OC)-c1c(c(Nc3cccc(F)c3)nn1C(=O)NCCNC(=O)c1ccccc1O)C2 [Compound 542, 3-(3-Fluoro-phenylamino)-6,7-dimethoxy-4H-indeno[1,2-c]pyrazole-1-carboxylic acid [2-(2-hydroxy-benzoylamino)-ethyl]-amide]	21%	–	–	–
CNCCNC(=O)n1nc(Nc2cccc(F)c2)c2c1-c1cc(OC)c(OC)cc1C2 [Compound 524, 3-(3-Fluoro-phenylamino)-6,7-dimethoxy-4H-indeno[1,2-c]pyrazole-1-carboxylic acid (2-methylamino-ethyl)-amide]	78%	2.48 µM	–	–
FC(F)(F)c1cccc(Nc2[nH]nc3c2Cc2cc(Br)ccc2-3)c1 [Compound 155, (6-Bromo-2,4-dihydro-indeno[1,2-c]pyrazol-3-yl)-(3-trifluoromethyl-phenyl)-amine]	53%	8.11 µM	–	–
COc1cc2c(cc1OC)-c1n[nH]c(NCc3c(F)cccc3F)c1C2 [Compound 321, (2,6-Difluoro-benzyl)-(6,7-dimethoxy-2,4-dihydro-indeno[1,2-c]pyrazol-3-yl)-amine]	77%	0.00745 µM	–	–
COCCCOc1ccc2c(c1)Cc1c-2n[nH]c1Nc1cccc(Br)c1 [Compound 141, (3-Bromo-phenyl)-[6-(3-methoxy-propoxy)-2,4-dihydro-indeno[1,2-c]pyrazol-3-yl]-amine]	83.5%	0.319 µM	–	–
COc1ccc2c(c1)Cc1c-2n[nH]c1Nc1ccc(OC(F)(F)F)cc1 [Compound 88, (6-Methoxy-2,4-dihydro-indeno[1,2-c]pyrazol-3-yl)-(4-trifluoromethoxy-phenyl)-amine]	42%	20.8 µM	–	–
CCCC(=O)OCn1nc2c(c1Nc1cccc(F)c1)Cc1cc(OC)c(OC)cc1-2 [Compound 491, Butyric acid 3-(3-fluoro-phenylamino)-6,7-dimethoxy-4H-indeno[1,2-c]pyrazol-2-ylmethyl ester]	92%	0.314 µM	–	–
COc1cc2c(cc1OC)-c1n[nH]c(NCc3ccccc3C)c1C2 [Compound 223, (6,7-Dimethoxy-2,4-dihydro-indeno[1,2-c]pyrazol-3-yl)-(2-methyl-benzyl)-amine]	97%	0.0459 µM	–	–
c1ccc(Nc2[nH]nc3c2Cc2sccc2-3)cc1 [Compound 94, (5,7-Dihydro-1-thia-4,5-diaza-cyclopenta[a]pentalen-6-yl)-phenyl-amine]	95%	0.415 µM	–	–
CCOc1cc2c(cc1OCC)-c1n[nH]c(Nc3cccc(OC)c3)c1C2 [Compound 245, (6,7-Diethoxy-2,4-dihydro-indeno[1,2-c]pyrazol-3-yl)-(3-methoxy-phenyl)-amine]	87%	0.001 µM	–	–
FC(F)(F)Oc1cccc(Nc2[nH]nc3c2Cc2cc(Br)ccc2-3)c1 [Compound 154, (6-Bromo-2,4-dihydro-indeno[1,2-c]pyrazol-3-yl)-(3-trifluoromethoxy-phenyl)-amine]	29%	41.6 µM	–	–
CCOc1cccc(Nc2[nH]nc3c2C(CC)c2cc(OC)c(OC)cc2-3)c1 (single isomer, unassigned) [Compound 571, (3-Ethoxy-phenyl)-(4-ethyl-6,7-dimethoxy-2,4-dihydro-indeno[1,2-c]pyrazol-3-yl)-amine]	–	–	66%	3.89 µM
COc1cc2c(cc1OC)-c1c(c(Nc3cccc(F)c3)nn1C(=O)CCC(N)=O)C2 [Compound 531, 4-[3-(3-Fluoro-phenylamino)-6,7-dimethoxy-4H-indeno[1,2-c]pyrazol-1-yl]-4-oxo-butyramide]	90%	0.024 µM	–	–
CCOc1cccc(Nc2[nH]nc3c2Cc2sccc2-3)c1 [Compound 405, (5,7-Dihydro-1-thia-4,5-diaza-cyclopenta[a]pentalen-6-yl)-(3-ethoxy-phenyl)-amine]	94.5%	0.0635 µM	–	–
COc1cc2c(cc1OC)-c1c(c(Nc3cccc(F)c3)nn1COC(=O)C(C)(C)C)C2 [Compound 409, 2,2-Dimethyl-propionic acid 3-(3-fluoro-phenylamino)-6,7-dimethoxy-4H-indeno[1,2-c]pyrazol-1-ylm ethyl ester]	85.5%	0.108 µM	–	–
COc1cc2c(c(NC(C)=O)c1OC)Cc1c-2n[nH]c1Nc1cccc(F)c1 [Compound 557, N-[3-(3-Fluoro-phenylamino)-6,7-dimethoxy-2,4-dihydro-indeno[1,2-c]pyrazol-5-yl]-acetamide]	102%	0.0325 µM	–	–
COc1ccc(Cl)cc1Nc1[nH]nc2c1Cc1cc(OC)c(OC)cc1-2 [Compound 56, (5-Chloro-2-methoxy-phenyl)-(6,7-dimethoxy-2,4-dihydro-indeno[1,2-c]pyrazol-3-yl)-amine]	36%	8.4 µM	–	–
Fc1ccc(F)c(Nc2[nH]nc3c2Cc2cc(Cl)ccc2-3)c1 [Compound 192, (6-Chloro-2,4-dihydro-indeno[1,2-c]pyrazol-3-yl)-(2,5-difluoro-phenyl)-amine]	67%	0.103 µM	–	–
COc1cc2c(cc1OC)C(C)(C)c1c-2n[nH]c1Nc1cccc(F)c1 [Compound 487, (6,7-Dimethoxy-4,4-dimethyl-2,4-dihydro-indeno[1,2-c]pyrazol-3-yl)-(3-fluoro-phenyl)-amine]	43%	37.5 µM	–	–
